≈ marks a conversion by molar mass, not a printed value. Entries after “also recorded” stand apart in the source; their conditions may differ.
Tests used:
C. rectus = settings: taxon 20: C. rectus; cited from earlier work
[1] = system: C. hyointestinalis subsp. lawsonii; settings: taxon 13: C. hyointestinalis subsp. lawsonii; cited from earlier work
C. mucosalis = settings: taxon 19: C. mucosalis; cited from earlier work
C. concisus = settings: taxon 4: C. concisus; cited from earlier work
[2] = system: C. hyointestinalis subsp. hyointestinalis; settings: taxon 12: C. hyointestinalis subsp. hyointestinalis; cited from earlier work
C. coli = settings: taxon 3: C. coli; cited from earlier work
C. sputorum = settings: taxon 22: C. sputorum; cited from earlier work
[3] = system: C. fetus subsp. venerealis; settings: taxon 8: C. fetus subsp. venerealis; cited from earlier work
[4] = system: novel campylobacter isolates; assay: Disc diffusion susceptibility to nalidixic acid and cephalothin (30 μg discs); type: cell-based; settings: for susceptibility / resistance of the novel Campylobacter strains, in words: disc diffusion tests, 30 μg disc, novel Campylobacter strains overall; for Susceptibility to (30 μg disc): disc diffusion; for resistance (share of strains positive): taxon A: Campylobacter novel (n=23); as to Susceptibility to (30 μg disc): key: S, susceptible; R, resistant
C. insulaenigrae = settings: taxon 14: C. insulaenigrae; cited from earlier work
C. lari = settings: taxon 18: C. lari; cited from earlier work
C. jejuni subsp. Jejuni = settings: taxon 16: C. jejuni subsp. Jejuni; cited from earlier work
C. hominus = settings: taxon 11: C. hominus; cited from earlier work
C. fetus subsp. fetus = settings: taxon 7: C. fetus subsp. fetus; cited from earlier work
C. showae = settings: taxon 21: C. showae; cited from earlier work
C. jejuni subsp. Doylei = settings: taxon 15: C. jejuni subsp. Doylei; cited from earlier work
C. curvus = settings: taxon 6: C. curvus; cited from earlier work
C. upsaliensis = settings: taxon 23: C. upsaliensis; cited from earlier work
C. cuniculurom = settings: taxon 5: C. cuniculurom; cited from earlier work
C. canadensis = settings: taxon 2: C. canadensis; cited from earlier work
[5] = system: Campylobacter novel strains; assay: Antimicrobial susceptibility testing by agar dilution method (MIC); settings: Campylobacter;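 also: agar dilution MIC on HBA, used in place of the BSAC-recommended Iso-sensitest agar, across a panel of 14 antimicrobials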
Protocol: Antimicrobial susceptibility testing was performed using the agar dilution method for the Campylobacter novel strains against 14 antimicrobials. […] As the strains were unable to grow on the Iso-sensitest agar (ISA) recommended by the BSAC guidelines, HBA (Table 1) was used as an alternative media.

C. lanienae = settings: taxon 17: C. lanienae; cited from earlier work
C. gracilis = settings: taxon 9: C. gracilis; cited from earlier work
C. helveticus = settings: taxon 10: C. helveticus; cited from earlier work
C. avium sp. Nov = settings: taxon 1: C. avium sp. Nov; cited from earlier work

## CCn1cc(C(=O)O)c(=O)c2ccc(C)nc21 [Nalidixic acid]
C. rectus
  resistance (share of strains positive): (+) ((+), 75-89% strains positive)
[1]
  resistance (share of strains positive): + (+, 90-100% of strains positive)
C. mucosalis
  resistance (share of strains positive): (+) ((+), 75-89% strains positive)
C. concisus
  resistance (share of strains positive): (+) ((+), 75-89% strains positive)
[2]
  resistance (share of strains positive): + (+, 90-100% of strains positive)
C. coli
  resistance (share of strains positive): − (−, 0-10% of strains positive)
C. sputorum
  resistance (share of strains positive): (+) ((+), 75-89% strains positive)
[3]
  resistance (share of strains positive): V (V, 26-74% of strains positive)
[4]
  susceptibility / resistance of the novel Campylobacter strains, in words: susceptible
  resistance (share of strains positive): − (−, 0-10% of strains positive)
[4]; strain Farm 1 2009/1
  Susceptibility to (30 μg disc): S
[4]; strain Farm 1 2009/2
  Susceptibility to (30 μg disc): S
[4]; strain Farm 1 2011/1
  Susceptibility to (30 μg disc): S
[4]; strain Farm 1 2011/2
  Susceptibility to (30 μg disc): S
[4]; strain Farm 1 2011/3
  Susceptibility to (30 μg disc): S
[4]; strain Farm 1 2011/4
  Susceptibility to (30 μg disc): S
[4]; strain Farm 1 2011/5
  Susceptibility to (30 μg disc): S
[4]; strain Farm 1 2011/6
  Susceptibility to (30 μg disc): S
[4]; strain Farm 2 2011/1
  Susceptibility to (30 μg disc): S
[4]; strain Farm 2 2011/2
  Susceptibility to (30 μg disc): S
[4]; strain Farm 2 2011/3
  Susceptibility to (30 μg disc): S
[4]; strain Farm 2 2011/4
  Susceptibility to (30 μg disc): S
[4]; strain Farm 3 2011/1
  Susceptibility to (30 μg disc): S
[4]; strain Farm 3 2011/2
  Susceptibility to (30 μg disc): S
[4]; strain Farm 3 2011/3
  Susceptibility to (30 μg disc): S
[4]; strain Farm 4 2011/1
  Susceptibility to (30 μg disc): S
[4]; strain Farm 4 2011/2
  Susceptibility to (30 μg disc): S
[4]; strain Farm 4 2011/3
  Susceptibility to (30 μg disc): S
C. insulaenigrae
  resistance (share of strains positive): + (+, 90-100% of strains positive)
C. lari
  resistance (share of strains positive): V (V, 26-74% of strains positive)
C. jejuni subsp. Jejuni
  resistance (share of strains positive): − (−, 0-10% of strains positive)
C. hominus
  resistance (share of strains positive): V (V, 26-74% of strains positive)
C. fetus subsp. fetus
  resistance (share of strains positive): + (+, 90-100% of strains positive)
C. showae
  resistance (share of strains positive): − (−, 0-10% of strains positive)
C. jejuni subsp. Doylei
  resistance (share of strains positive): − (−, 0-10% of strains positive)
C. curvus
  resistance (share of strains positive): + (+, 90-100% of strains positive)
C. upsaliensis
  resistance (share of strains positive): − (−, 0-10% of strains positive)
C. cuniculurom
  resistance (share of strains positive): V (V, 26-74% of strains positive)
C. canadensis
  resistance (share of strains positive): V (V, 26-74% of strains positive)
[5]
  MIC50: 4 µg/mL (≈ 17.2 µM)
  MIC90: 8 µg/mL (≈ 34.4 µM)
C. lanienae
  resistance (share of strains positive): + (+, 90-100% of strains positive)
C. gracilis
  resistance (share of strains positive): V (V, 26-74% of strains positive)
C. helveticus
  resistance (share of strains positive): − (−, 0-10% of strains positive)
C. avium sp. Nov
  resistance (share of strains positive): − (−, 0-10% of strains positive)

## CC(=O)OCC1=C(C(=O)O)N2C(=O)[C@@H](NC(=O)Cc3cccs3)[C@H]2SC1 [Cephalothin]
C. rectus
  resistance (share of strains positive): − (−, 0-10% of strains positive)
[1]
  resistance (share of strains positive): − (−, 0-10% of strains positive)
C. mucosalis
  resistance (share of strains positive): − (−, 0-10% of strains positive)
C. concisus
  resistance (share of strains positive): − (−, 0-10% of strains positive)
[2]
  resistance (share of strains positive): (−) ((−), 11-25% of strains positive)
C. coli
  resistance (share of strains positive): + (+, 90-100% of strains positive)
C. sputorum
  resistance (share of strains positive): − (−, 0-10% of strains positive)
[3]
  resistance (share of strains positive): − (−, 0-10% of strains positive)
[4]
  susceptibility / resistance of the novel Campylobacter strains, in words: variable resistance; also recorded: some were sensitive
  resistance (share of strains positive): V (V, 26-74% of strains positive)
[4]; strain Farm 1 2009/1
  Susceptibility to (30 μg disc): R
[4]; strain Farm 1 2009/2
  Susceptibility to (30 μg disc): R
[4]; strain Farm 1 2011/1
  Susceptibility to (30 μg disc): R
[4]; strain Farm 1 2011/2
  Susceptibility to (30 μg disc): R
[4]; strain Farm 1 2011/3
  Susceptibility to (30 μg disc): R
[4]; strain Farm 1 2011/4
  Susceptibility to (30 μg disc): R
[4]; strain Farm 1 2011/5
  Susceptibility to (30 μg disc): R
[4]; strain Farm 1 2011/6
  Susceptibility to (30 μg disc): R
[4]; strain Farm 2 2011/1
  Susceptibility to (30 μg disc): S
[4]; strain Farm 2 2011/2
  Susceptibility to (30 μg disc): S
[4]; strain Farm 2 2011/3
  Susceptibility to (30 μg disc): S
[4]; strain Farm 2 2011/4
  Susceptibility to (30 μg disc): S
[4]; strain Farm 3 2011/1
  Susceptibility to (30 μg disc): S
[4]; strain Farm 3 2011/2
  Susceptibility to (30 μg disc): S
[4]; strain Farm 3 2011/3
  Susceptibility to (30 μg disc): S
[4]; strain Farm 4 2011/1
  Susceptibility to (30 μg disc): S
[4]; strain Farm 4 2011/2
  Susceptibility to (30 μg disc): S
[4]; strain Farm 4 2011/3
  Susceptibility to (30 μg disc): S
C. insulaenigrae
  resistance (share of strains positive): + (+, 90-100% of strains positive)
C. lari
  resistance (share of strains positive): + (+, 90-100% of strains positive)
C. jejuni subsp. Jejuni
  resistance (share of strains positive): + (+, 90-100% of strains positive)
C. hominus
  resistance (share of strains positive): − (−, 0-10% of strains positive)
C. fetus subsp. fetus
  resistance (share of strains positive): − (−, 0-10% of strains positive)
C. showae
  resistance (share of strains positive): − (−, 0-10% of strains positive)
C. jejuni subsp. Doylei
  resistance (share of strains positive): − (−, 0-10% of strains positive)
C. curvus
  resistance (share of strains positive): − (−, 0-10% of strains positive)
C. upsaliensis
  resistance (share of strains positive): (−) ((−), 11-25% of strains positive)
C. cuniculurom
  resistance (share of strains positive): (+) ((+), 75-89% strains positive)
C. canadensis
  resistance (share of strains positive): − (−, 0-10% of strains positive)
[5]
  MIC50: 32 µg/mL (≈ 80.7 µM)
  MIC90: 32 µg/mL (≈ 80.7 µM)
C. gracilis
  resistance (share of strains positive): − (−, 0-10% of strains positive)
C. helveticus
  resistance (share of strains positive): − (−, 0-10% of strains positive)
C. avium sp. Nov
  resistance (share of strains positive): + (+, 90-100% of strains positive)
